# Measurements: patent EP0830890A1, “Surfactants for use in liquid/supercritical CO2” (AIR PRODUCTS AND CHEMICALS, INC., priority 1996, dated 1998)
# Experiments:
# Format in all cases: physicochemical
# [1] = Solubility in CO2 by cloud point determination in a variable volume view cell; design: Pressure Describing Cloud Point Determinations For Surfactant/CO2 Concentrations / Pressure Describing Cloud Point Determinations For Surfactant/CO2Concentrations: unit not given here
# Method: In the following examples, mixtures of acetylenic alcohols or diols and CO2 were prepared by adding the acetylenic alcohol or diol to a stainless steel variable volume view cell equiped with suitable relief devices, high pressure valves CO2 inlet and outlet and a sapphire window at one end. A high pressure syringe pump (High Pressure Products, HIP pump) was filled with liquid CO2 and used to quantitiatively add CO2 to the pressure vessel. The pressure vessel contained a magnetic stirrer and was stirred via a magnetic couple to a magnet located below the vessel.
# A weighed amount of surfactant (0.5-10 weight %) was placed inside the cell chamber in front of the piston. The cell window was attached and 10 cc ? s of CO2, was added to the cell. The surfactant was mixed in the CO2 using a magnetic stirring bar. The cell was mounted in horizontally and then immersed in a water bath. After allowing the high pressure cell to attain thermal equilibrium the pressure within the cell was varied using a floating piston. The pressure was changed to monitor the cloud point as being indicative of insolubility. The operator viewed the floating piston through the sapphire window using a suitable optic device, the onset of insolubility was taken when the translucent solution changed to an orange/brown color due to the Tindall light scattering of the insoluble droplets. The onset of insolubility was checked several times by varying the pressure using the high pressure syringe pump.
# A water bath was used to vary the temperature for each concentration. On completing the solubility studies at one concentration and one temperature series, a calibrated injector loop attached to the high pressure cell was filled with the surfactant via a syringe. Utilizing a six way valve to help inject this fixed amount of surfactant, the surfactant concentration within the high pressure cell was increased by a fixed increment. The solubility studies for this new CO2/surfactant concentration were measured at various temperatures in a similar manner to that previously described.
# [2] = as above; design: unit not given here; settings: Surfactant Concn. in CO2 0.2486 wt%; 65°C
# [3] = Interfacial tension of a PEG 600 drop in CO2/surfactant solution via pendant drop technique; settings: PEG (600) drop, 2 weight % Surfynol/CO2 solution
# From the text: Interfacial activity can be monitored using the 'pendant drop' technique, ("Chemistry of Interfaces" M.J.Jaycock & Parfitt, John Wiley and Sons, New York p49-51). This method is utilized to measure the interfacial tension between a pendant drop and a continuous phase that surrounds the drop. When carbon dioxide is used as the continuous media, special high pressure equipment with sapphire view ports is required to maintain a solution of CO2 and surfactant, and to study the change in shape of the pendant drop for interfacial tension calculations. A general procedure for these high pressure phase behavior measurements may be found in Langmuir, vol. 10 1994, pg 3536-3541, by K. Harrison, K. P. Johnston, J. Goveas and E. A. O ? Rear.
# Various ethoxylates of 2,4,7,9-tetramethyl-5-decyn-4,7-diol were used in the interfacial tension study. Table 3 gives the interfacial tension observed for ethoxylates of 2,4,7,9-tetramethyl-5-decyn-4,7-diol containing 20, 40, and 65 wt% ethylene oxide. The table also gives the interfacial tension of the polyethyleneglycol (PEG 600)drop within the pure CO2 media. […] It is interesting to note the actual reduction in interfacial tension. For a control PEG 600 drop at 2510 psi the interfacial tension was measured to be 3.39 dyne/cm (run #5in Table 3). […] This corresponds to lowering the interfacial tension by 0.54 dyne/cm, a 16% reduction. A surfactant/CO2 solution of 2 weight % (using the 40 wt% ethoxylated Surfynol surfactant) gave an interfacial tension of 1.57 dyne/cm. at a CO2 pressure of 4030 psi (run #33in Table 3). The corresponding PEG drop at 4093psi used as the control gave an interfacial tension of 1.92dyne/cm (run #18 in Table 3).
substance,measurement,setting,value
"Ethoxylated 2,4,7,9-Tetramethyl-5-decyn-4,7-diol [AP-465]",Pressure Describing Cloud Point Determinations For Surfactant/CO2Concentrations,"[1]; Surfactant Concn. in CO2 0.2486 wt%, 25°C",1440
same,Pressure Describing Cloud Point Determinations For Surfactant/CO2Concentrations,"[1]; Surfactant Concn. in CO2 0.2486 wt%, 35°C",1920
same,Pressure Describing Cloud Point Determinations For Surfactant/CO2Concentrations,"[1]; Surfactant Concn. in CO2 0.2486 wt%, 60°C",2690
same,Pressure Describing Cloud Point Determinations For Surfactant/CO2Concentrations,"[1]; Surfactant Concn. in CO2 0.8867 wt%, 35°C",4020
same,Pressure Describing Cloud Point Determinations For Surfactant/CO2Concentrations,"[1]; Surfactant Concn. in CO2 0.8867 wt%, 45°C",4590
same,Pressure Describing Cloud Point Determinations For Surfactant/CO2Concentrations,"[1]; Surfactant Concn. in CO2 0.8867 wt%, 60°C",5270
same,Pressure Describing Cloud Point Determinations For Surfactant/CO2Concentrations,"[1]; Surfactant Concn. in CO2 0.8867 wt%, 65°C",5470
same,CO2 solubility (in words),[1]; in CO2,poor CO2 solubility
same,Pressure Describing Cloud Point Determinations For Surfactant/CO2Concentrations,[2],2800
same,Interfacial Tension IFT,[3]; 3599 psi (248 bar),1.95 dyne/cm
same,Interfacial Tension IFT,[3]; 3628 psi (250 bar),1.99 dyne/cm
same,Interfacial Tension IFT,[3]; 3995 psi (276 bar),1.73 dyne/cm
same,Interfacial Tension IFT,[3]; 3998 psi (276 bar),1.66 dyne/cm
same,Interfacial Tension IFT,[3]; 4505 psi (311 bar),1.51 dyne/cm
same,Interfacial Tension IFT,[3]; 4508 psi (311 bar),1.57 dyne/cm
